Measurements as given in PubChem BioAssay (NCI).
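Assay format: 96-well plates, 48-hour exposure. Here, GI50 denotes the concentration required for 50% inhibition of growth. Definition used: TGI = concentration required for complete inhibition of growth.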

Key:
Experiment in all cases: growth of human tumour cells (NCI), 48 h
[1] = system: MOLT-4 leukemia
[2] = system: HCT-116 colon
[3] = system: SR leukemia
[4] = system: HT29 colon
[5] = system: UACC-257 melanoma
[6] = system: UO-31 renal
[7] = system: MCF7 breast
[8] = system: T-47D breast
[9] = system: ACHN renal
[10] = system: CCRF-CEM leukemia
[11] = system: OVCAR-4 ovarian
[12] = system: SK-OV-3 ovarian
[13] = system: NCI-H226 lung
[14] = system: M14 melanoma
[15] = system: OVCAR-8 ovarian
[16] = system: SNB-75 CNS
[17] = system: LOX IMVI melanoma
[18] = system: KM12 colon
[19] = system: UACC-62 melanoma
[20] = system: COLO 205 colon
[21] = system: CAKI-1 renal
[22] = system: SNB-19 CNS
[23] = system: HOP-92 NSCLC
[24] = system: 786-0 renal
[25] = system: SF-539 CNS
[26] = system: K-562 leukemia
[27] = system: HCT-15 colon
[28] = system: HCC-2998 colon
[29] = system: MDA-MB-435
[30] = system: TK-10 renal
[31] = system: NCI-H23 lung
[32] = system: DU-145 prostate
[33] = system: IGROV1 ovarian
[34] = system: SF-268 CNS
[35] = system: EKVX NSCLC
[36] = system: SK-MEL-5 melanoma
[37] = system: HL-60(TB) leukemia
[38] = system: RXF 393 renal
[39] = system: SF-295 CNS
[40] = system: MDA-MB-231 breast
[41] = system: SK-MEL-28 melanoma
[42] = system: HS 578T breast
[43] = system: NCI-H460 lung
[44] = system: BT-549 breast
[45] = system: NCI/ADR-RES ovarian
[46] = system: HOP-62 NSCLC
[47] = system: RPMI-8226 leukemia
[48] = system: SK-MEL-2 melanoma
[49] = system: U251 CNS
[50] = system: SW-620 colon
[51] = system: A498 renal
[52] = system: PC-3 prostate
[53] = system: NCI-H522 lung
[54] = system: OVCAR-3 ovarian
[55] = system: OVCAR-5 ovarian
[56] = system: A549 NSCLC
[57] = system: MALME-3M melanoma
[58] = system: SN12C renal

CC1=NN(c2nc(N)nc(CC#N)n2)C(C)(C)C1
TGI [1]: > 100 µM | TGI [2]: > 100 µM | TGI [3]: > 100 µM | TGI [4]: > 100 µM | TGI [5]: > 100 µM | TGI [6]: > 100 µM | TGI [7]: > 100 µM | TGI [8]: > 100 µM | TGI [9]: > 100 µM | TGI [10]: > 100 µM | TGI [11]: > 100 µM | TGI [12]: > 100 µM | TGI [13]: > 100 µM | TGI [14]: > 100 µM | TGI [15]: > 100 µM | TGI [16]: > 100 µM | TGI [17]: > 100 µM | TGI [18]: > 100 µM | TGI [19]: > 100 µM | TGI [20]: > 100 µM | TGI [21]: > 100 µM | TGI [22]: > 100 µM | TGI [23]: > 100 µM | TGI [24]: > 100 µM | TGI [25]: > 100 µM | TGI [26]: > 100 µM | TGI [27]: > 100 µM | TGI [28]: > 100 µM | TGI [29]: > 100 µM | TGI [30]: > 100 µM | TGI [31]: > 100 µM | TGI [32]: > 100 µM | TGI [33]: > 100 µM | TGI [34]: > 100 µM | TGI [35]: > 100 µM | TGI [36]: > 100 µM | TGI [37]: > 100 µM | TGI [38]: > 100 µM | TGI [39]: > 100 µM | TGI [40]: > 100 µM | TGI [41]: > 100 µM | TGI [42]: > 100 µM | TGI [43]: > 100 µM | TGI [44]: > 100 µM | TGI [45]: > 100 µM | TGI [46]: > 100 µM | TGI [47]: > 100 µM | TGI [48]: > 100 µM | TGI [49]: > 100 µM | TGI [50]: > 100 µM | TGI [51]: > 100 µM | TGI [52]: > 100 µM

CCCC(CCC)C(=O)OCC1(CO)C/C(=C\c2ccc(F)cc2)C(=O)O1 (stereo not drawn)
GI50 [1]: 3.54 µM | TGI [1]: 21.4 µM | GI50 [53]: 14.5 µM | TGI [53]: 30.4 µM | GI50 [2]: 13.6 µM | TGI [2]: 27.1 µM | GI50 [3]: 6.55 µM | TGI [3]: 25.4 µM | GI50 [4]: 13.6 µM | TGI [4]: 27.3 µM | GI50 [5]: 14.7 µM | TGI [5]: 28.7 µM | GI50 [6]: 8.35 µM | TGI [6]: 24.4 µM | GI50 [54]: 17.1 µM | TGI [54]: 31.2 µM | GI50 [7]: 15.5 µM | TGI [7]: 31.4 µM | GI50 [8]: 13.2 µM | TGI [8]: 30.1 µM | GI50 [9]: 9.32 µM | TGI [9]: 23.4 µM | GI50 [55]: 16.6 µM | TGI [55]: 31.4 µM | GI50 [10]: 0.0233 µM | TGI [10]: 0.107 µM | GI50 [11]: 13.9 µM | TGI [11]: 28.4 µM | GI50 [12]: 19.5 µM | TGI [12]: 33.9 µM | GI50 [13]: 11.7 µM | TGI [13]: 32.3 µM | GI50 [14]: 8.45 µM | TGI [14]: 24.8 µM | GI50 [15]: 17.9 µM | TGI [15]: 37 µM | GI50 [16]: 7.99 µM | TGI [16]: 22.8 µM | GI50 [17]: 11.2 µM | TGI [17]: 24.5 µM | GI50 [18]: 13.9 µM | TGI [18]: 27.5 µM | GI50 [19]: 8.16 µM | TGI [19]: 23.8 µM | GI50 [20]: 0.545 µM | TGI [20]: 8.74 µM | GI50 [21]: 7.28 µM | TGI [21]: 27.4 µM | GI50 [22]: 18.2 µM | TGI [22]: 32.2 µM | GI50 [23]: 0.487 µM | TGI [23]: 12.5 µM | GI50 [56]: 3.66 µM | TGI [56]: 21.5 µM | GI50 [24]: 10.5 µM | TGI [24]: 23.8 µM | GI50 [25]: 12 µM | TGI [25]: 24.4 µM | GI50 [57]: 12.1 µM | TGI [57]: 27.2 µM | GI50 [26]: 0.374 µM | TGI [26]: 18 µM | GI50 [27]: 12.5 µM | TGI [27]: 26.2 µM | GI50 [58]: 12.4 µM | TGI [58]: 26.4 µM | GI50 [28]: 6.73 µM | TGI [28]: 19.8 µM | GI50 [29]: 2.43 µM | TGI [29]: 20.9 µM | GI50 [30]: 6.06 µM | TGI [30]: 23.6 µM | GI50 [31]: 12.4 µM | TGI [31]: 26.7 µM | GI50 [32]: 12.7 µM | TGI [32]: 25.7 µM | GI50 [33]: 15.5 µM | TGI [33]: 32.7 µM | GI50 [34]: 13.2 µM | TGI [34]: 26.7 µM | GI50 [35]: 7.67 µM | TGI [35]: 34.3 µM | GI50 [36]: 0.829 µM | TGI [36]: 17 µM | GI50 [37]: 0.907 µM | TGI [37]: 8.36 µM | GI50 [38]: 15.6 µM | TGI [38]: 36.6 µM | GI50 [39]: 1.99 µM | TGI [39]: 17.4 µM | GI50 [40]: 6.98 µM | TGI [40]: 23.9 µM | GI50 [41]: 14.7 µM | TGI [41]: 28 µM | GI50 [42]: 14.3 µM | TGI [42]: 43.5 µM | GI50 [43]: 1.94 µM | TGI [43]: 19.6 µM | GI50 [44]: 7.25 µM | TGI [44]: 22.6 µM | GI50 [45]: 13.9 µM | TGI [45]: 33.4 µM | GI50 [46]: 4.11 µM | TGI [46]: 17 µM | GI50 [47]: 0.845 µM | TGI [47]: 7.15 µM | GI50 [48]: 17.2 µM | TGI [48]: 34.1 µM | GI50 [49]: 8.07 µM | TGI [49]: 23.4 µM | GI50 [50]: 6.93 µM | TGI [50]: 20.7 µM | GI50 [51]: 1.46 µM | TGI [51]: 12.4 µM | GI50 [52]: 10.4 µM | TGI [52]: 25 µM
